Values quoted from earlier work as cited in patent US12558353B2 (CELLTAXIS, LLC, priority 2018, dated 2026).
Like-named read-outs stand apart in the source and are kept apart here.

Tests used:
[1] = molecular target: T1, BLT1 receptor (Homo sapiens, UniProt Q15722); settings: patients with stable CF lung disease, cited from earlier work
T1 construct: host or cells: human CF patients (endogenous receptor)

[2] = test system: P. aeruginosa-infected mice; settings: doses of 0.3 to 100 mg/kg; cited from earlier work
[3] = test system: patients with CF; settings: high doses, cited from earlier work

T1 sequence (Q15722 whole entry): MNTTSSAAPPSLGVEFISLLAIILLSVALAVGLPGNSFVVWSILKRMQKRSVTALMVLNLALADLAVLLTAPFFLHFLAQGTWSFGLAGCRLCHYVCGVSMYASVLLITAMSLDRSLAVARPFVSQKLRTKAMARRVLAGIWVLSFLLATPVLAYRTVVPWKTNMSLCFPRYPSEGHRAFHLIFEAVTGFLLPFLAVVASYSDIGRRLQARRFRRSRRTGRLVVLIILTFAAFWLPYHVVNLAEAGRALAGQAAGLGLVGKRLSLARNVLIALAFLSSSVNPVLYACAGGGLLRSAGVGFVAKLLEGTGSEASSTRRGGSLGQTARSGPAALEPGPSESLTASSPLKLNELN

SMILES	serious adverse events leading to early termination of the trial [1]	serious adverse events leading to early termination of the trial ([1]; listed as amelubant)	Mac-1 (CR3) expression [2]	number of neutrophils in the lungs and the airways [2]	survival ([3]; children with CF)	lung function decline [3]
CCOC(=O)NC(=N)c1ccc(OCc2cccc(COc3ccc(C(C)(C)c4ccc(O)cc4)cc3)c2)cc1	increase in respiratory serious adverse events	increase in serious pulmonary AEs	significantly down-regulated	reduced the number of neutrophils	–	–
CC(C)Cc1ccc(C(C)C(=O)O)cc1 (stereo not drawn) [ibuprofen]	–	–	–	–	improves survival	slows lung function decline
